In US20250171407A1, “ULTRAVIOLET ABSORBER” (BASF SE, priority 2022, published 2025):

Test: Solubility test: visual assessment of defects in the dried paint of the stabilized coating formulation
Assay type: physicochemical
From the text: Each coating formulation A was stabilized with 1.0 or 3.0 active % based on resin solids of Tinuvin® 1130 (UV absorber, BASF SE), Tinuvin® 9945-DW (N) or inventive examples samples.
Each coating formulation further contained 1,0 active % based on resin solids of Tinuvin® 123DW (N) (HALS, BASF SE).
The clear coat formulations were subsequently applied by brush onto a wood substrate (thickness: two layers à 100 g/m^2 resulting after drying at room temperature in a final dry film thickness of ˜40 μm). The clear coat formulations were subsequently applied by draw-down onto a glass plate (thickness: one layer b 200 g/m^2 resulting after drying at room temperature in a final dry film thickness of ˜40 μm).
The solubility of above-described coating formulation containing one of the compounds obtained in examples 3, 11 and 27 in the amount given above was tested. The solubility was visually assessed qualitatively by presence of defects in the dried paint.

Substance: Tinuvin® 1130 [Example 27]
- Presence of defects: no
